Measured values taken from PubChem BioAssay (NCI).
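All cell lines were grown in 96-well plates and treated with compound for 48 hours. At the GI50, growth is halved. Definition used: TGI = concentration required for complete inhibition of growth.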

What was measured:
Assay in all cases: growth of human tumour cells (NCI), 48 h
786-0 renal = tested on: 786-0 renal
SW-620 colon = tested on: SW-620 colon
SF-268 CNS = tested on: SF-268 CNS
K-562 leukemia = tested on: K-562 leukemia
HCC-2998 colon = tested on: HCC-2998 colon
MOLT-4 leukemia = tested on: MOLT-4 leukemia
OVCAR-8 ovarian = tested on: OVCAR-8 ovarian
M14 melanoma = tested on: M14 melanoma
UACC-62 melanoma = tested on: UACC-62 melanoma
KM12 colon = tested on: KM12 colon

SMILES | GI50 (786-0 renal) | TGI (786-0 renal) | GI50 (SW-620 colon) | TGI (SW-620 colon) | GI50 (SF-268 CNS) | TGI (SF-268 CNS) | GI50 (K-562 leukemia) | TGI (K-562 leukemia) | GI50 (HCC-2998 colon) | TGI (HCC-2998 colon) | GI50 (MOLT-4 leukemia) | TGI (MOLT-4 leukemia) | GI50 (OVCAR-8 ovarian) | TGI (OVCAR-8 ovarian) | GI50 (M14 melanoma) | TGI (M14 melanoma) | GI50 (UACC-62 melanoma) | TGI (UACC-62 melanoma) | GI50 (KM12 colon) | TGI (KM12 colon)
OCCn1c(-c2ccncc2)c(-c2ccc(F)cc2)c2ncccc21 | > 25 µM | > 25 µM | > 25 µM | > 25 µM | > 25 µM | > 25 µM | > 25 µM | > 25 µM | > 25 µM | > 25 µM | > 25 µM | > 25 µM | > 25 µM | > 25 µM | > 25 µM | > 25 µM | > 25 µM | > 25 µM | > 25 µM | > 25 µM
CC(=O)Nc1ccc(C(=O)COc2cccc(/C=C3\CCc4ccccc4C3=O)c2)cc1 | 26.5 µM | > 100 µM | 3.65 µM | 15 µM | 19 µM | 52.4 µM | 2.8 µM | 12.7 µM | 17.7 µM | 32.2 µM | 4.3 µM | 20.9 µM | 23.6 µM | > 100 µM | 14.4 µM | 34 µM | 12.5 µM | 32.7 µM | 4.92 µM | 18.1 µM
CCCCCCCCCCCCCCCC(=O)NCC(OCC)OCC |  | > 100 µM |  | > 100 µM |  | > 100 µM |  |  |  | > 100 µM |  |  |  | > 100 µM |  | > 100 µM |  | > 100 µM |  | > 100 µM
Cc1cc(C2(c3cc(C)c(O)c4ncccc34)OC(=O)c3ccccc32)c2cccnc2c1O | 0.114 µM | > 100 µM | 0.0521 µM | > 100 µM |  |  |  | > 100 µM |  | > 100 µM |  | > 100 µM |  | > 100 µM | 0.0162 µM |  | 0.0209 µM | 14.6 µM |  | > 100 µM
CC(=O)OCc1cc2c(s1)C(=O)c1sccc1C2=O |  | 1.84 µM |  | 0.268 µM |  | 0.417 µM |  | > 100 µM |  | 3.22 µM |  |  |  | 0.576 µM |  | < 0.0189 µM |  | 0.305 µM |  | 0.562 µM
CCNc1nc(-c2ccc(Cl)c(OC)c2)c(-c2ccnc(NCCNS(=O)(=O)c3ccc(Cl)cc3)n2)s1 | 3.46 µM | 13.9 µM | 4.22 µM | > 100 µM | 4.03 µM | > 100 µM | 3.17 µM | > 100 µM | 4.97 µM | > 100 µM |  |  | 3.88 µM | > 100 µM | 3.82 µM | > 100 µM | 2.11 µM | 5.49 µM | 3.52 µM | > 100 µM
Cc1cc2c(=O)cc(-c3ccncc3)oc2c(C(=O)O)c1C |  | > 100 µM |  | > 100 µM |  | > 100 µM |  |  |  | > 100 µM |  | > 100 µM |  | > 100 µM |  |  |  | > 100 µM |  | 
N#Cc1c(N)nc(N2CCOCC2)c(C#N)c1-c1ccc(Cl)cc1Cl | 19.5 µM | 44.8 µM | 27.3 µM | > 100 µM | 14.2 µM | 35.6 µM | 23.9 µM | 99.1 µM | 13.3 µM | 28.2 µM | 24.2 µM | > 100 µM | 18.2 µM | 54.5 µM | 18.3 µM | 42 µM | 10.8 µM | 28.8 µM |  | 
O=C(CO[N+](=O)[O-])OCC(=O)c1ccccc1 |  | > 100 µM |  | > 100 µM |  | > 100 µM |  | > 100 µM |  | > 100 µM |  | > 100 µM |  | > 100 µM |  | > 100 µM |  |  |  | > 100 µM
Oc1ccc(CCNc2nc3ccccc3c3[nH]c4ccccc4c23)cc1 | 1.29 µM | 2.69 µM |  |  | 1.71 µM | 5.01 µM | 1.91 µM | > 100 µM | 1.56 µM | 3.02 µM | 0.472 µM | > 100 µM | 1.02 µM | 2.29 µM | 1.73 µM | 3.26 µM | 1.66 µM | 3.04 µM | 1.2 µM | 2.98 µM
CCNC(=O)O/N=C1/C=C2CC[C@@H]3C(CC[C@@]4(C)C3CC[C@@H]4OC(=O)NCC)[C@@]2(C)CC1 (stereo not given in full) |  | 10.7 µM |  | 11.4 µM |  |  |  | 12.7 µM |  | 15.2 µM |  | 5.44 µM |  | 16.3 µM |  | 8.22 µM |  | 7.92 µM |  | 9.58 µM
Cn1nc(-c2ccccc2)c(C(=O)/C=C/c2ccccc2)c(N2CCCC2)c1=O |  | 33.4 µM |  | 53.7 µM |  | 64.2 µM |  | 40.9 µM |  |  |  | 22.3 µM |  | 76.5 µM |  | 35.3 µM |  | 41 µM |  | 
CC1=CC(=O)N2[C@H](OC[C@@H]2C(C)C)O1 |  | > 100 µM |  | > 100 µM |  | > 100 µM |  | > 100 µM |  |  |  | > 100 µM |  | > 100 µM |  | > 100 µM |  | > 100 µM |  | > 100 µM
O=[N+]([O-])C1(CO)COC(CCc2ccccc2)OC1 (stereo not given) |  | > 100 µM |  | > 100 µM |  |  |  | > 100 µM |  | > 100 µM |  | > 100 µM |  | > 100 µM |  | > 100 µM |  | > 100 µM |  | > 100 µM
NC(=O)NC(=O)C1CCC(=O)N1S(=O)(=O)c1ccc(Cl)cc1 (stereo not given) |  | > 100 µM |  | > 100 µM |  | > 100 µM |  | > 100 µM |  |  |  | > 100 µM |  | > 100 µM |  | > 100 µM |  | > 100 µM |  | > 100 µM
CCOC(=O)Oc1ccc2[nH]c3c(C)cc(N)c(C)c3c2c1 |  | > 100 µM |  | > 100 µM |  | > 100 µM |  | > 100 µM |  | > 100 µM |  | > 100 µM |  | > 100 µM |  | > 100 µM |  |  |  | > 100 µM
Cc1nc(-c2cccnc2)sc1C(=O)/C=C/c1ccc(Cl)cc1Cl |  | > 100 µM |  | > 100 µM |  | > 100 µM |  | > 100 µM |  | > 100 µM |  | > 100 µM |  | > 100 µM |  |  |  | > 100 µM |  | > 100 µM
Cc1cc2c(SCc3ccccc3Cl)nc(N)nc2nc1C |  | > 100 µM |  | > 100 µM |  | > 100 µM |  |  |  | > 100 µM |  |  |  | > 100 µM |  | > 100 µM |  | > 100 µM |  | > 100 µM
O=C1C(=O)c2c(ccc3ccccc23)-c2ccccc21 | 3.13 µM | > 100 µM | 1.96 µM | 4.23 µM | 1.77 µM | 5.73 µM |  |  | 2.65 µM | 7.75 µM | 2.37 µM | 6.83 µM | 2.11 µM | 7.98 µM |  |  | 1.57 µM | 3.38 µM | 1.6 µM | 2.99 µM
